# Assay results taken from US20260335282A1, “NOVEL 3-ARYLIDENE-2-INDOLINONE DERIVATIVES FOR THERAPEUTIC USE” (ISTANBUL UNIVERSITESI REKTORLUGU, priority 2022, published 2026).
# “Also recorded” adds a separate entry of the source.
# What was measured:
# [1] = test system: general tyrosine kinase activity in A498 kidney cancer cells; experiment: General tyrosine kinase activity (ELISA) in A498 cells; format: cell-based, human; conditions: IC50 concentration
# Experimental: (§1) Takara Universal Tyrosine Kinase Assay Kit is used to determine the effects of 11 2-indolinone compounds (Y1, Y2, Y3, Y4, Y5, Y8, […], […], Y21, Y23, 20C, 22C) on general tyrosine kinase activity in cancer cells. Cells are seeded in 6-well plates (4.10^5 cells/well) and the IC50 concentration of each selected molecule is performed to the cells for 48 or 72 hours. Cells in the control group are incubated with medium only. At the end of the incubation period, the cells in each well are washed with PBS and cells are removed from the wells using a cell scraper via 1 ml of the extraction buffer in the kit. The cell lysate is transferred to ependorf tubes and centrifuged at 10.000 g for 10 minutes at +4° C. and the supernatant is used as a sample for activity determination. After the extracts obtained from the control and experimental groups are diluted 1:25, 40 μl extracts is transferred to two wells in the 96-well plate in the kit. In addition, the standard solution in the kit is diluted according to the kit instructions and each concentration is transferred 40 μl into three wells. 10 μl of 40 mM ATP-2Na solution is added to all wells and the plate is incubated at 37° C. for 30 minutes. […] The reaction is finished by adding 100 μl of stop solution to each well and the optical density in each well is measured at 405 nm with a microplate reader (BioTek, USA). The tyrosine kinase activity in each sample is calculated from the standard curve obtained from the absorbance values of the standard solutions with the kit (Chan W Y, Lau P M, Yeung K W, Kong S K. The second generation tyrosine kinase inhibitor dasatinib induced eryptosis in human erythrocytes—An in vitro study. Toxicol Lett. 2018; 295:10-21). […]
# The effects of 11 2-indolinone compounds (Y1, Y2, Y3, Y4, Y5, Y8, Y14, Y21, Y23, 20C and 22C) having the structure of formula (5), which are prominent with their cytotoxicity in A498, MIAPaCa-2 and HCT-116 cancer cell lines and nontoxic properties in healthy cells, on general tyrosine kinase activity in cancer cells are determined.
# A498 cells = experiment: Apoptosis/necrosis detection, Annexin V/PI flow cytometry, A498; format: cell-based, human
# Experimental: After incubation with 2-indolinone compounds (IC50 μM concentration; 48 and/or 72 hours), cells are washed twice with PBS and the cell pellet is suspended in Annexin V binding buffer. After this incubation, cells are incubated with FITC-conjugated Annexin V and propidium iodine staining solution for 15 minutes in the dark and at room temperature. Then, cells are analyzed by flow cytometry (Beckman coulter, Navios) (Wlodkowic, D., Skommer, J, Darzynkiewicz, Z. 2009. Flow cytometry-based apoptosis detection, Methods Mol Biol., 559, 1-14).
# [2] = test system: general tyrosine kinase activity in HCT116 colon cancer cells; experiment: General tyrosine kinase activity (ELISA) in HCT-116 cells; format: cell-based, human; conditions: 72 hours, IC50 concentration
# Experimental: as §1, with “determination.” for “determination. After the extracts obtained from the control and experimental groups are diluted 1:25, 40 μl extracts is transferred to two wells in the 96-well plate in the kit. In addition, the standard solution in the kit is diluted according to the kit instructions and each concentration is transferred 40 μl into three wells. 10 μl of 40 mM ATP-2Na solution is added to all wells and the plate is incubated at 37° C. for 30 minutes.”
# human cancer cells = experiment: MTT cell viability, human cancer cells overall; format: cell-based; conditions: cell line as discussed at the place
# Text: The cytotoxicity, general tyrosine kinase inhibitory effects and cell death (apoptosis/necrosis) assays of 1-benzyl-3-(1H-indol-3-ylmethylidene)-1,3-dihydro-2H-indol-2-one derivatives (Formula 5) of the present invention are studied by the following methods. […] HUVEC (human umbilical vein endothelial cell), MCF-10F (human breast epithelial cell) and Beas2b (human lung bronchial epithelial cell) cell lines have been used as healthy control cells in MTT experiments.
# Beas2b (human lung bronchiole epithelial cell) and HEK293 (renal tubule epithelium) cells used as normal cell lines were cultured in RPMI medium, and HUVEC (human umbilical cord endothelial cells) and MCF-10F (human breast epithelial cell) cells are cultured in DMEM medium containing 100 µg/ml penicillin/streptomycin. The cells, which covered 70% of the culture flask, are washed with phosphate buffer and then removed from the surface of the flask by application of trypsin-ethylenediamine tetraacetic acid (Trypsin-EDTA; 0.25%) solution, passaged, counted and seeded on appropriate plates before each experiment. Cells are treated with a total of 45 2-indolinone compounds (5) at concentrations of 0.1, 1, 5 and 10 μM. Stock compounds are prepared in 1 ml dimethylsulfoxide (DMSO) and 4 different dilutions were prepared with medium and performed to the cells. Control group cells are treated with DMSO at a similar concentration to the experimental groups.
# MTT (3-(4,5-dimethylthiazol-2-yl)-2,5-diphenyl-2H-tetrazolium bromide) colorimetric assay provides quantitation of viable cells with ongoing mitochondrial activity in culture medium. According to the standard procedure in cell culture conditions, cells are maintained in RPMI-1640 and DMEM culture media containing 10% FBS and 1% penicillin/streptomycin. The trypan blue test is used for cell counts.
# The effects of 45 2-indolinone compounds (5) on cell viability in all cancer cell lines are investigated by MTT assay. Cells are seeded in a 96-well flat bottom plate with 5000 cells in each well and 2-indolinone compounds (5) at concentrations of 0.1, 1, 5 and 10 μM are performed to the cells the next day. After 48 and/or 72 hours following treatment with 2-indolinone compounds, 50 μl of the supernatant is slowly discarded (as it was acid medium) and MTT at a concentration of 5 mg/ml is added to each well in a volume of 10 μl. After incubation for 4 hours, the formazan crystals formed in the wells are dissolved by adding 100 μl DMSO and the optical density is read at 570 nm test wavelength and 630 nm reference wavelength. Cell viability is expressed as % cell viability by comparing the absorbance of control and test wells. IC50 value is calculated from the dose-response curves prepared for each compound. In addition, the possible DMSO effect is eliminated by preparing negative control wells compatible with the amount of DMSO contained in the compounds. To understand the reaction of the compounds with MTT, cell-free (MTT+compounds) negative controls are prepared at the concentrations used (Mosmann, 1983). […] The absorbance values obtained are compared to the control and statistically evaluated by unpaired t-test using “Graphpad Prism 5.04” software. “P<0.05” is accepted as significant. When evaluating cytotoxic effects, the present inventors aim for the inventive compounds to be effective in cancer cells and ineffective in healthy cells. […]
compound,measurement,setting,value
Cc1ccc2c(c1)/C(=C/c1c[nH]c3ccccc13)C(=O)N2Cc1ccccc1 [Y3],general tyrosine kinase activity compared to control,[1]; 48 h,significantly decreased; also recorded: decreased the general tyrosine kinase activity
same,necrosis compared to control,A498 cells; A498,no increase or decrease; also recorded: did not cause necrosis
same,Apoptosis rate compared to control,"A498 cells; A498, IC50 concentration",increased significantly
O=C1/C(=C\c2c[nH]c3ccccc23)c2cc(OC(F)(F)F)ccc2N1Cc1ccccc1 [Y4],tyrosine kinase activity compared to control,[2],did not cause a significant change
same,potency/selectivity compared with sunitinib malate,human cancer cells,more potent than Sunitinib malate
Cc1ccc2c(c1)/C(=C/c1c[nH]c3ccccc13)C(=O)N2Cc1cccc(F)c1 [Y8],general tyrosine kinase activity compared to control,[1]; 72 h,did not cause a significant change
